Experimental findings from ChEMBL document CHEMBL1136643, “Identification of a novel series of selective 5-HT7 receptor antagonists” (Bioorg Med Chem Lett, 2003) are described below.

Test [1] deals with 5-hydroxytryptamine receptor 2A (Homo sapiens, UniProt P28223). As to the kind of experiment: Binding affinity at human cloned 5-hydroxytryptamine 2A receptor.
The target in test [2] is 5-hydroxytryptamine receptor 7 (Homo sapiens, UniProt P34969). Nature of the test: Binding affinity at human cloned 5-hydroxytryptamine 7 receptor.
Test [3] deals with T1, 5-hydroxytryptamine receptor 1A (Homo sapiens, UniProt P08908).
T1 sequence (P08908 whole entry): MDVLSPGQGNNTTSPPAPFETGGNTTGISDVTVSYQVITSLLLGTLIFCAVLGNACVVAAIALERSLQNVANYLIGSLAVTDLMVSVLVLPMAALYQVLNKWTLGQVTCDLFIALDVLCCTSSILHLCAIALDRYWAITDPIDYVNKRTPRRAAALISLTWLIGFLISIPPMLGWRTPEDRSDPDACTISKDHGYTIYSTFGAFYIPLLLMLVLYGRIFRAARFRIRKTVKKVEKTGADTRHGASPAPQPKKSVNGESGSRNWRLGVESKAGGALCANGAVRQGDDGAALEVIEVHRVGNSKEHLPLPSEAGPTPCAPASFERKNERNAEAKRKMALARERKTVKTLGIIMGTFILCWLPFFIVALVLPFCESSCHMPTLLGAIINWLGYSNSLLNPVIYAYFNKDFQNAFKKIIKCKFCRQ
Nature of the test: Binding affinity towards 5-hydroxytryptamine 1A receptor in human using [3H]8-OH-DPAT as radioligand.

Test [4] concerns the target 5-hydroxytryptamine receptor 1B (Homo sapiens, UniProt P28222). As to the kind of experiment: Binding affinity towards cloned human 5-hydroxytryptamine 1B receptor was determined.
For test [5], the target named is 5-hydroxytryptamine receptor 1E (Homo sapiens, UniProt P28566). Nature of the test: Binding affinity towards cloned human 5-hydroxytryptamine 1E receptor was determined.
For test [6], the target named is 5-hydroxytryptamine receptor 1D (Homo sapiens, UniProt P28221). Nature of the test: Binding affinity towards cloned human 5-hydroxytryptamine 1D receptor.
Test [7] deals with T2, 5-hydroxytryptamine receptor 2C (Homo sapiens, UniProt P28335).
T2 sequence (P28335 whole entry): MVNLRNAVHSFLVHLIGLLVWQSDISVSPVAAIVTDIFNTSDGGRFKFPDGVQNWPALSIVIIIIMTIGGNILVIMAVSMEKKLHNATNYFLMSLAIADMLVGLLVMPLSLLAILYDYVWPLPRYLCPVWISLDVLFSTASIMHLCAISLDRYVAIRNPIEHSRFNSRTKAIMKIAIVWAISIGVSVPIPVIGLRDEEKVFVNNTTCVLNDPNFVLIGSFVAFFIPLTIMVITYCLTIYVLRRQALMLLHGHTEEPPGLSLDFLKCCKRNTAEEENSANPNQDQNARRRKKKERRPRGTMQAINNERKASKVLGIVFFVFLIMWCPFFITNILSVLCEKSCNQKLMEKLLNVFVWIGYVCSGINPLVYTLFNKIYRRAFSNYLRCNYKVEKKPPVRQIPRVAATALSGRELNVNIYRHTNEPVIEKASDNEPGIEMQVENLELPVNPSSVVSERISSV
As to the kind of experiment: Binding affinity towards cloned human 5-hydroxytryptamine 2C receptor was determined.

Test [8] has as its target 5-hydroxytryptamine receptor 2B (Homo sapiens, UniProt P41595). As to the kind of experiment: Binding affinity towards cloned human 5-hydroxytryptamine 2B receptor was determined.
Test [9] deals with 5-hydroxytryptamine receptor 6 (Homo sapiens, UniProt P50406). As to the kind of experiment: Binding affinity towards human 5-hydroxytryptamine 6 receptor.
For the next test, the target named is Cytochrome P450 2C19 (Homo sapiens, UniProt P33261). As to the kind of experiment: Inhibition of human Cytochrome P450 2C19. It counts as ADME.
Another test addresses Cytochrome P450 2C9 (Homo sapiens, UniProt P11712). As to the kind of experiment: Inhibition of human cytochrome P450 isoform 2C9. It is filed as ADME.
A further test addresses Cytochrome P450 2D6 (Homo sapiens, UniProt P10635). Nature of the test: Inhibition of human Cytochrome P450 2D6. It is filed as ADME.
The target of another test is Cytochrome P450 3A4 (Homo sapiens, UniProt P08684). As to the kind of experiment: Inhibition of human Cytochrome P450 3A4. It counts as ADME.
The target of another test is T3, D(4) dopamine receptor (Homo sapiens, UniProt P21917).
T3 sequence (P21917 whole entry): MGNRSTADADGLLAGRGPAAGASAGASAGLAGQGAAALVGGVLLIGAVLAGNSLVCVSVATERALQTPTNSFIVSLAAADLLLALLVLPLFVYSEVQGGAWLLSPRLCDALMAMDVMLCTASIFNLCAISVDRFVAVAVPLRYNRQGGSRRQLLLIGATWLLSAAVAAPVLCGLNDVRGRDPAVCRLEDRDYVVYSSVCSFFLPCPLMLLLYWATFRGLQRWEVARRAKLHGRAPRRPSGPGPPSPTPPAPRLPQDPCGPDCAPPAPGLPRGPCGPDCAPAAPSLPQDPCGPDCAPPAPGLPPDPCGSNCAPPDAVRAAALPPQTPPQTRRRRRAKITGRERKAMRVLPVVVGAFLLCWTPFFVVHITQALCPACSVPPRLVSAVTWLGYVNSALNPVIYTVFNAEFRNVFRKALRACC
Nature of the test: Binding affinity towards cloned human dopamine D4 receptor was determined.

A further test addresses D(3) dopamine receptor (Homo sapiens, UniProt P35462). Nature of the test: Binding affinity towards cloned human dopamine D3 receptor was determined.
Test [10] has as its target T4, 5-hydroxytryptamine receptor 1F (Homo sapiens, UniProt P30939).
T4 sequence (P30939 whole entry): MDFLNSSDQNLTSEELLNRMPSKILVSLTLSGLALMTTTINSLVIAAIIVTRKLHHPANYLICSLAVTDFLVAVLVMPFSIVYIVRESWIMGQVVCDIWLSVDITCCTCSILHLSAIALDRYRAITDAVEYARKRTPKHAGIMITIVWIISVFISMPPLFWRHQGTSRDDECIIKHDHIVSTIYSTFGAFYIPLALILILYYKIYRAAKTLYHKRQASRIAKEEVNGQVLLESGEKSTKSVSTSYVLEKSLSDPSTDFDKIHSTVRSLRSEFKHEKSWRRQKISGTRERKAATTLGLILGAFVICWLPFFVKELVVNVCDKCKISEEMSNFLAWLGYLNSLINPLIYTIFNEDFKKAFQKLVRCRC
As to the kind of experiment: Binding affinity towards cloned human 5-hydroxytryptamine 1F receptor was determined.

Test [11] concerns the target 5-hydroxytryptamine receptor 5A (Homo sapiens, UniProt P47898). Nature of the test: Binding affinity towards cloned human 5-HT5A receptor was determined.
The next test has as its target T5, Cytochrome P450 1A2 (Homo sapiens, UniProt P05177).
T5 sequence (P05177 whole entry): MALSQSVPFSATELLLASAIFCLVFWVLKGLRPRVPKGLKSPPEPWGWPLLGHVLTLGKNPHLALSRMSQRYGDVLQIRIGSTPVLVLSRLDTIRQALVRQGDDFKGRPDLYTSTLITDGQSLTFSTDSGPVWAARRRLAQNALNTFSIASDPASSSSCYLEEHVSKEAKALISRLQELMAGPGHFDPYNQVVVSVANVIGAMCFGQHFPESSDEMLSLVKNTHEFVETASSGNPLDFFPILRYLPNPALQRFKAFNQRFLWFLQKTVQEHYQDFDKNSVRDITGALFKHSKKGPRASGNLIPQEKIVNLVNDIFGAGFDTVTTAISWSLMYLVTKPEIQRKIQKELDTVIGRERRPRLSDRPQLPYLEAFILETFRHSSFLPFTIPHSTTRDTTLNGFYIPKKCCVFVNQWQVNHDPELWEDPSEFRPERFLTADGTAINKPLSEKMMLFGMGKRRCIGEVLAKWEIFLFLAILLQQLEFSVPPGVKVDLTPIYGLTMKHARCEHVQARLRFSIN
Nature of the test: Inhibition of human Cytochrome P450 1A2. It counts as ADME.

Sequence of 5-hydroxytryptamine receptor 7 (P34969 whole entry): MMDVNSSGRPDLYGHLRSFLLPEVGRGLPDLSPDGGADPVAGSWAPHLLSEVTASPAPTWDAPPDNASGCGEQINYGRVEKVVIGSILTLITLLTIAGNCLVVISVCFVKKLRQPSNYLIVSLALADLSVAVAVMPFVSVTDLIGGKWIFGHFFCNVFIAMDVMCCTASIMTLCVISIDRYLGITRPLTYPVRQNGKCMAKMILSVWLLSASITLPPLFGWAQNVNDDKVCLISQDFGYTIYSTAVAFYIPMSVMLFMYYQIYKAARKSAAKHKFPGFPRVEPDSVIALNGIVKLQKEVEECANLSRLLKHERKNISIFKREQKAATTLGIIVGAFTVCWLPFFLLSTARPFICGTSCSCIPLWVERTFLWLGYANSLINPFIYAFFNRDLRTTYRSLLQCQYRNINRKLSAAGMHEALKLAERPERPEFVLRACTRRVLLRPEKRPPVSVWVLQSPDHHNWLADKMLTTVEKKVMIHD
Sequence of 5-hydroxytryptamine receptor 2A (P28223 whole entry): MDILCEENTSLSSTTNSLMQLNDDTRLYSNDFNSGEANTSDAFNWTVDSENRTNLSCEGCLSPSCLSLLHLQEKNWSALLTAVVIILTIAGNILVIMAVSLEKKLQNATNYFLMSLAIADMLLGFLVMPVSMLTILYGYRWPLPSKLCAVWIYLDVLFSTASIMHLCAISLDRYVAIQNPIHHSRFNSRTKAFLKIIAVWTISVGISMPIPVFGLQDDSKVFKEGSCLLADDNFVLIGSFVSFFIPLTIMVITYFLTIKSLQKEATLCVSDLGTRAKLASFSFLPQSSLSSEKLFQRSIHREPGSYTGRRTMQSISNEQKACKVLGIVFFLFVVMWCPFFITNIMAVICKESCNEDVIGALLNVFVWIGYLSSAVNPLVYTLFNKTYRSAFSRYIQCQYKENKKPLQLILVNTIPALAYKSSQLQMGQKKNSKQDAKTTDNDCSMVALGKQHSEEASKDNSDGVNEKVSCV
Sequence of 5-hydroxytryptamine receptor 5A (P47898 whole entry): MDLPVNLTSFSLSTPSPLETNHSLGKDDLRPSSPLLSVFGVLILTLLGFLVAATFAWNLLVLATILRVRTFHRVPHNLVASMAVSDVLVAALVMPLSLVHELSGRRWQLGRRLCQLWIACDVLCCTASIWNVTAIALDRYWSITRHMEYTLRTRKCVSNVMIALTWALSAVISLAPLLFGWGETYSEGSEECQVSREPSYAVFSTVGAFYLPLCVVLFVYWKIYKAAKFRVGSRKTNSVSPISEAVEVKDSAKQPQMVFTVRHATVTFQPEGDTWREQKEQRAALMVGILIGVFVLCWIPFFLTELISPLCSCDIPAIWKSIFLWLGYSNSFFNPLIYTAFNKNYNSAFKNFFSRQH
Sequence of 5-hydroxytryptamine receptor 1D (P28221 whole entry): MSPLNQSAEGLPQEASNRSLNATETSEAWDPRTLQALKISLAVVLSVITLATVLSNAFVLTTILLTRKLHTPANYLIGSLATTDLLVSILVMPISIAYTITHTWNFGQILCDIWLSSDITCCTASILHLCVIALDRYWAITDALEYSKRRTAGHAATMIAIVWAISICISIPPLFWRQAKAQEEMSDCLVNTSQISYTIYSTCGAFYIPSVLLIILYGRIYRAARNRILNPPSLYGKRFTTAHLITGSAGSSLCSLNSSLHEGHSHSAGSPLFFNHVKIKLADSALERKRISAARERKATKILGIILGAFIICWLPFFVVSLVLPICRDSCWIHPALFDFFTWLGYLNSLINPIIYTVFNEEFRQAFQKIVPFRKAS
Sequence of Cytochrome P450 3A4 (P08684 whole entry): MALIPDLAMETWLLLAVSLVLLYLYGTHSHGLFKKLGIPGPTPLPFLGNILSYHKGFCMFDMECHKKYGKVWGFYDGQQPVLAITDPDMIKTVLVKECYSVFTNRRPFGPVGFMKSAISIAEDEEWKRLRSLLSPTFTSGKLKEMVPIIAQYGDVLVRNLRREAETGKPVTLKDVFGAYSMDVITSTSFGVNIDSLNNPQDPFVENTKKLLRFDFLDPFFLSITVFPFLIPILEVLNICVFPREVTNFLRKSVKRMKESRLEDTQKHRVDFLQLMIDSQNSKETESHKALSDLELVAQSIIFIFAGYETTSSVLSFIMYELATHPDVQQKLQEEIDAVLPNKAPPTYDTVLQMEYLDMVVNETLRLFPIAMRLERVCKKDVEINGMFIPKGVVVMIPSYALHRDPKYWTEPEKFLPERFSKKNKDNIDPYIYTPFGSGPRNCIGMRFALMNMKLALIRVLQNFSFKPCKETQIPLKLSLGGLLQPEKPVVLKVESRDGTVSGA
Sequence of 5-hydroxytryptamine receptor 1B (P28222 whole entry): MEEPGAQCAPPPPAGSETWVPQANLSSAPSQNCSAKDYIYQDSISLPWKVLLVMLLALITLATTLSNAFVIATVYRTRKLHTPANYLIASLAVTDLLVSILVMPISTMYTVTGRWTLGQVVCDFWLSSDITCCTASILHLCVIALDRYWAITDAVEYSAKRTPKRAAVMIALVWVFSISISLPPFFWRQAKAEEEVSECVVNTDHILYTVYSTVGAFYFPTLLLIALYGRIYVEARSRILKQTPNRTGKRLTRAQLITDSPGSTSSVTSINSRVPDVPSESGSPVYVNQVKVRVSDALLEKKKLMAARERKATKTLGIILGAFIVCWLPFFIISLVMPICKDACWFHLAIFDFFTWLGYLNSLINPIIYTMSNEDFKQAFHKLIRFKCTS
Sequence of Cytochrome P450 2C9 (P11712 whole entry, canonical isoform): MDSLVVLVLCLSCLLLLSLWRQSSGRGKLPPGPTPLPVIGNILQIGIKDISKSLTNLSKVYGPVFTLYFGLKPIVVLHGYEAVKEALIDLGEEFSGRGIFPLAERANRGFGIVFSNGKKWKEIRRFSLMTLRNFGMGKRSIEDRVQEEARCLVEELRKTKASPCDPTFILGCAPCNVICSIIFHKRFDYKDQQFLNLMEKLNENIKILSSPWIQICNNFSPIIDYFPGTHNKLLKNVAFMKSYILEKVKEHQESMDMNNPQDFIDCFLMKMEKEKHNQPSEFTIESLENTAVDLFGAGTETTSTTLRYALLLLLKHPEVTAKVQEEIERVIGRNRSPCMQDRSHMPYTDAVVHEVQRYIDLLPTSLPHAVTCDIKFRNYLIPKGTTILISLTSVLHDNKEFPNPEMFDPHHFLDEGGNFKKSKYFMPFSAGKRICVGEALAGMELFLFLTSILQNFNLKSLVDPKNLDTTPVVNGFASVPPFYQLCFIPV
Sequence of Cytochrome P450 2D6 (P10635 whole entry): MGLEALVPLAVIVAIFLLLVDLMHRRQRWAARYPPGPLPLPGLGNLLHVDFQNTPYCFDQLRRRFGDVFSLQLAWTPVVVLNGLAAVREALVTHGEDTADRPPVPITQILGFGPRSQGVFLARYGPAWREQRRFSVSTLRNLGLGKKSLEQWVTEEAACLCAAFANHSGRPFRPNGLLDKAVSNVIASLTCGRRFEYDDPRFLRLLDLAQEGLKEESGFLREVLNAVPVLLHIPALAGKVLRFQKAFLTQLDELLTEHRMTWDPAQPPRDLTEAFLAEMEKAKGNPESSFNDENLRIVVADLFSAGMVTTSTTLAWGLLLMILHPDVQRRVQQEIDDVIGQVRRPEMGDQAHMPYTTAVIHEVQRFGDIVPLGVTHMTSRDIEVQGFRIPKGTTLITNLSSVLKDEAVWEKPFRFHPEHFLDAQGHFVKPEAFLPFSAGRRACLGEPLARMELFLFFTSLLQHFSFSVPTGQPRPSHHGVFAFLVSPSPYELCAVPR
Sequence of 5-hydroxytryptamine receptor 1E (P28566 whole entry): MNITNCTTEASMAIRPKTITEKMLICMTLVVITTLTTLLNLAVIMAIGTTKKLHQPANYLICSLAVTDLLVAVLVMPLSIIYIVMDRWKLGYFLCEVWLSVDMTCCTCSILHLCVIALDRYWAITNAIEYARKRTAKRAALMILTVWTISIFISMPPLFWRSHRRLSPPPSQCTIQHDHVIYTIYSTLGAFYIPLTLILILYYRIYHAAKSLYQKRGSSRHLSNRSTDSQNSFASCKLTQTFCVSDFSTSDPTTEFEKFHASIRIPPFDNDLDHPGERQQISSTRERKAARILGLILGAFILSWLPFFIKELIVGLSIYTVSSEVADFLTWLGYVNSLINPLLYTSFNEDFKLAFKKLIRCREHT
Sequence of Cytochrome P450 2C19 (P33261 whole entry, canonical isoform): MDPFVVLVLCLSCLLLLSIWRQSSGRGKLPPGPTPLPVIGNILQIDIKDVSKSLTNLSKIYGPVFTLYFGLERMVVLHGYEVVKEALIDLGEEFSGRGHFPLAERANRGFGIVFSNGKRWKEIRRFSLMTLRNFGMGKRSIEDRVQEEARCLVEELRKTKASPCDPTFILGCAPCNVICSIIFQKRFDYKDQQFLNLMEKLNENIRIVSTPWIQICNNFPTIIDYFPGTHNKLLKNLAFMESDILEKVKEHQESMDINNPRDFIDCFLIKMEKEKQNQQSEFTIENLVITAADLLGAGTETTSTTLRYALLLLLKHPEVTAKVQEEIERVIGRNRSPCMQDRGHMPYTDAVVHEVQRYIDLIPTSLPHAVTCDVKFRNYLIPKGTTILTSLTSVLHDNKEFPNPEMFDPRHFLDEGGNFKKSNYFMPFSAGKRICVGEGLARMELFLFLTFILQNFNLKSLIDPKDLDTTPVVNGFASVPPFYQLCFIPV
Sequence of 5-hydroxytryptamine receptor 2B (P41595 whole entry): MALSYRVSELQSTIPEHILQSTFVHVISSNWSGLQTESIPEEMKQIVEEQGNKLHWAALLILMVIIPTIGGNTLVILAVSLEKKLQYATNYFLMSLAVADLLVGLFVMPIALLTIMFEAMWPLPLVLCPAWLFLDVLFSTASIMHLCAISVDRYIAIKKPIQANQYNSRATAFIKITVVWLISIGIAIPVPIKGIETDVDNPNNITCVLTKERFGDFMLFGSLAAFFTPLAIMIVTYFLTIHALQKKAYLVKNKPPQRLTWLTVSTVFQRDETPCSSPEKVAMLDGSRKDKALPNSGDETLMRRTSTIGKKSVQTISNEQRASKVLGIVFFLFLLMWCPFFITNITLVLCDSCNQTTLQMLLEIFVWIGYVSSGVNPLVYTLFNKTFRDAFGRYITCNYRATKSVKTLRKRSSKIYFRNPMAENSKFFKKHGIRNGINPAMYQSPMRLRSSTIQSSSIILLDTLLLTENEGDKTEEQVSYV

The term Ki denotes the equilibrium dissociation constant of an inhibitor or competing ligand from its target. The low end stands for tighter binding, the high end for weaker binding. In the case of `O=C1c2ccccc2CCCN1CCN1CCC(c2c[nH]c3ccccc23)CC1`, the inhibition constant Ki was 1.7 nM in [1] and 0.407 nM in test [2].
`Cc1ccccc1OC1CCN(CCC2CCCc3ccccc3C2=O)CC1` (stereo not given): in [2], the affinity, expressed as Ki, was 11.2 nM.
Take `O=C1c2ccccc2CCCN1CCN1CCC(n2c(=O)oc3ccccc32)CC1`: the Ki is 977 nM in [1] and 27.5 nM in test [2].
Taken in the same sequence, the figures for `O=C1c2ccccc2CCCN1CCN1CCC(n2c(O)nc3ccccc32)CC1` were greater than 1580 nM and 10.2 nM.
As a reminder, the IC50 is the concentration that gives 50% inhibition. For `O=C1c2ccccc2CCCN1CCN1CCC(n2c(=O)[nH]c3cc(F)ccc32)CC1`, the Ki was 479 nM in test [3]; greater than 3980 nM in test [4]; greater than 10000 nM in [5]; 2400 nM in test [6]; 302 nM in [1]; 3310 nM in [7]. Also, the Ki in test [8] was 1000 nM; in test [2], 2.24 nM; in test [9], greater than 5010 nM; at D(4) dopamine receptor, 1230 nM; on D(3) dopamine receptor, 1700 nM; in test [10], greater than 10000 nM. Also, the inhibition constant Ki in [11] is 1480 nM. The 50% inhibitory concentration (IC50) against Cytochrome P450 2C19 was greater than 100000 nM; against Cytochrome P450 2C9, 35000 nM; against Cytochrome P450 2D6 it was 10000 nM; against Cytochrome P450 3A4, greater than 100000 nM; on Cytochrome P450 1A2, 62000 nM.
Take `O=C(c1ccc(Cl)cc1)C1CCN(CCN2CCCc3ccccc3C2=O)CC1`: the inhibitory constant (Ki) is 77.6 nM in [1] and 2.51 nM in test [2].
On to `O=C1c2ccccc2CCCN1CCN1CCC(Oc2ccc(F)cc2)CC1`, for which the Ki in test [1] was 31.6 nM; in test [2] it was 4.47 nM.
For `O=C1c2ccccc2CCCN1CCN1CCC(n2nnc3ccccc32)CC1` the same measures were 269 nM and 14.1 nM.
`O=C1c2ccccc2CCCN1CCN1CCC(Oc2ccc(Cl)cc2)CC1`: the inhibition constant Ki in [1] was 74.1 nM; in test [2] it was 11.7 nM.
For the compound `O=C1c2ccccc2CCCN1CCN1CCC(n2c(=O)oc3cc(F)ccc32)CC1`, the Ki is 186 nM in [1] and 9.33 nM in test [2].
For `O=C1c2ccccc2CCCN1CCN1CCC(n2nnc3cc(F)ccc32)CC1` the same measures were 49 nM and 2.04 nM.
With `O=C1c2ccccc2CCCN1CCN1CCC(Oc2ccccc2)CC1`, the Ki in test [1] was 155 nM; in test [2] it was 20.4 nM.
In the case of `O=C1c2ccccc2CCCC1CCN1CCC(Oc2ccccc2)CC1` (stereo not given), in test [2], the affinity, expressed as Ki, was 25.1 nM.
Consider `O=C(c1ccc(F)cc1)C1CCN(CCN2CCCc3ccccc3C2=O)CC1`, for which the figures for the Ki in [1] and in test [2] were 17 nM and 1.66 nM, respectively.
Regarding `O=C1CC(CN2CCC(Oc3ccccc3)CC2)CCc2ccccc21` (stereo not given), in test [2], the Ki was 18.6 nM.
On to `Cc1ccc(OC2CCN(CCN3CCCc4ccccc4C3=O)CC2)cc1`, for which the Ki is 55 nM in [1] and 9.12 nM in test [2].
`COc1ccccc1C1CCN(CC2CCc3ccccc3C(=O)C2)CC1` (stereo not given) showed an inhibitory constant (Ki) in test [2] of 11.2 nM.
Consider `O=C1c2ccccc2CCCN1CCN1CCC(n2ccc3cc(F)ccc32)CC1`, for which the Ki was 6.92 nM in test [1] and 0.562 nM in [2].
As to `O=C1c2ccccc2CCCN1CCN1CCC(n2ccc3ccccc32)CC1`, the inhibition constant (Ki) in [1] is 19.5 nM; in test [2] it was 2.75 nM.
